# Experimental data published in patent US9976141B2, “Compositions and methods for inhibiting gene expression of Hif2alpha” (Arrowhead Madison Inc., priority 2015, dated 2018).
# Strand notation (5' to 3'): a small letter for the sugar, then the base; units joined by * are phosphorothioate-linked, units joined directly phosphodiester-linked; [ ] holds rarer units or linkages, { } end groups; capitals alone tell only the bases. d = 2'-deoxy (DNA); m = 2'-O-methyl; f = 2'-fluoro
# Tested on: human EPAS1 (Hif2α) cDNA in psiCHECK2 (Renilla luciferase/EPAS1 fusion mRNA) in Hep3B cells
# Experiment: Efficacy screen of Hif2α RNAi triggers in vitro, dual-luciferase reporter assay (1 nM and 0.1 nM)
# Format: cell-based
# Conditions: Hep3B cells co-transfected with EPAS1-psiCHECK2, Renilla luciferase normalized to firefly luciferase
# Outline: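 Hep3B cells (10,000/well) co-transfected with chemically modified siRNA triggers at 1 nM and 0.1 nM plus 25 ng EPAS1-psiCHECK2 plasmid via LipoFectamine 2000. Knockdown measured as Renilla luciferase from the EPAS1 fusion mRNA, normalized to constitutive firefly luciferase by dual-luciferase assay.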
Substance,Relative Rluc-Hif2α (0.1 nM RNAi trigger),Relative Rluc-Hif2α (1 nM RNAi trigger)
2316 (sense fGmCfUmCfGmAfGmGfCmCfCmAfGmAfCmGfUmGfAdT; antisense dTfCmAfCmGfUmCfUmGfGmGfCmCfUmCfGmAfGmCdT*dT; siRNA) [compound 2316],0.797 ± 0.211,0.579 ± 0.055
2317 (sense fCmUfCmGfAmGfGmCfCmCfAmGfAmCfGmUfGmCfAdT; antisense dTfGmCfAmCfGmUfCmUfGmGfGmCfCmUfCmGfAmGdT*dT; siRNA) [compound 2317],0.842 ± 0.239,0.843 ± 0.157
2318 (sense fGmGfUmAfGmCfCmCfUmCfUmCfCmAfAmCfAmAfAdT; antisense dTfUmUfGmUfUmGfGmAfGmAfGmGfGmCfUmAfCmCdT*dT; siRNA) [compound 2318],0.885 ± 0.370,0.780 ± 0.103
2319 (sense fCmUfUmUfGmAfUmGfCmCfGmGfAmCfAmAfGmCfAdT; antisense dTfGmCfUmUfGmUfCmCfGmGfCmAfUmCfAmAfAmGdT*dT; siRNA) [compound 2319],0.454 ± 0.101,0.234 ± 0.055
2320 (sense fUmUfUmGfAmUfGmCfCmGfGmAfCmAfAmGfCmCfAdT; antisense dTfGmGfCmUfUmGfUmCfCmGfGmCfAmUfCmAfAmAdT*dT; siRNA) [compound 2320],0.770 ± 0.312,0.486 ± 0.059
2321 (sense fUmUfGmAfUmGfCmCfGmGfAmCfAmAfGmCfCmAfAdT; antisense dTfUmGfGmCfUmUfGmUfCmCfGmGfCmAfUmCfAmAdT*dT; siRNA) [compound 2321],0.561 ± 0.043,0.665 ± 0.033
2322 (sense fGmGfAmCfAmAfGmCfCmAfCmUfGmAfGmCfGmCfAdT; antisense dTfGmCfGmCfUmCfAmGfUmGfGmCfUmUfGmUfCmCdT*dT; siRNA) [compound 2322],0.468 ± 0.012,0.306 ± 0.059
2323 (sense fAmCfAmAfGmCfCmAfCmUfGmAfGmCfGmCfAmAfAdT; antisense dTfUmUfGmCfGmCfUmCfAmGfUmGfGmCfUmUfGmUdT*dT; siRNA) [compound 2323],0.631 ± 0.085,0.664 ± 0.166
2324 (sense fGmGfAmCfUmAfCmAfGmCfCmUfGmUfCmGfUmCfAdT; antisense dTfGmAfCmGfAmCfAmGfGmCfUmGfUmAfGmUfCmCdT*dT; siRNA) [compound 2324],1.081 ± 0.293,1.046 ± 0.208
2325 (sense fGmAfCmUfAmCfAmGfCmCfUmGfUmCfGmUfCmAfAdT; antisense dTfUmGfAmCfGmAfCmAfGmGfCmUfGmUfAmGfUmCdT*dT; siRNA) [compound 2325],1.304 ± 0.134,1.379 ± 0.275
2326 (sense fCmUfAmCfAmGfCmCfUmGfUmCfGmUfCmAfGmCfAdT; antisense dTfGmCfUmGfAmCfGmAfCmAfGmGfCmUfGmUfAmGdT*dT; siRNA) [compound 2326],0.660 ± 0.114,0.546 ± 0.083
2327 (sense fCmCfUmGfUmCfGmUfCmAfGmCfCmCfAmCfAmAfAdT; antisense dTfUmUfGmUfGmGfGmCfUmGfAmCfGmAfCmAfGmGdT*dT; siRNA) [compound 2327],1.339 ± 0.179,1.073 ± 0.089
2328 (sense fGmCfAmUfGmGfCmAfAmGfCmCfGmGfCmUfGmCfAdT; antisense dTfGmCfAmGfCmCfGmGfCmUfUmGfCmCfAmUfGmCdT*dT; siRNA) [compound 2328],1.291 ± 0.109,1.192 ± 0.144
2329 (sense fCmUfGmAfCmCfAmGfAmUfAmUfGmAfCmUfGmUfAdT; antisense dTfAmCfAmGfUmCfAmUfAmUfCmUfGmGfUmCfAmGdT*dT; siRNA) [compound 2329],0.807 ± 0.117,0.456 ± 0.064
2330 (sense fGmAfUmAfUmGfAmCfUmGfUmGfAmGfGmUfGmAfAdT; antisense dTfUmCfAmCfCmUfCmAfCmAfGmUfCmAfUmAfUmCdT*dT; siRNA) [compound 2330],1.097 ± 0.416,0.464 ± 0.035
2331 (sense fGmGfUmGfAmAfCmGfUmGfCmCfCmGfUmGfCmUfAdT; antisense dTfAmGfCmAfCmGfGmGfCmAfCmGfUmUfCmAfCmCdT*dT; siRNA) [compound 2331],1.002 ± 0.321,0.783 ± 0.080
2332 (sense fUmAfCmAfAmGfAmUfGmGfAmCfUmUfAmCfCmUfAdT; antisense dTfAmGfGmUfAmAfGmUfCmCfAmUfCmUfUmGfUmAdT*dT; siRNA) [compound 2332],1.174 ± 0.027,0.871 ± 0.235
2333 (sense fGmGfAmCfUmUfAmCfCmUfGmGfCmAfGmAfCmUfAdT; antisense dTfAmGfUmCfUmGfCmCfAmGfGmUfAmAfGmUfCmCdT*dT; siRNA) [compound 2333],0.684 ± 0.147,0.291 ± 0.019
2334 (sense fUmUfUmUfUmCfUmGfAmGfAmUfGmCfUmCfAmCfAdT; antisense dTfGmUfGmAfGmCfAmUfCmUfCmAfGmAfAmAfAmAdT*dT; siRNA) [compound 2334],0.672 ± 0.082,0.389 ± 0.044
2335 (sense fAmGfUmAfCmAfCmAfAmUfUmGfUmUfUmUfAmCfAdT; antisense dTfGmUfAmAfAmAfCmAfAmUfUmGfUmGfUmAfCmUdT*dT; siRNA) [compound 2335],0.311 ± 0.032,0.104 ± 0.013
2336 (sense fAmCfAmAfGmUfUmUfGmGfUmGfCmAfUmGfUmCfAdT; antisense dTfGmAfCmAfUmGfCmAfCmCfAmAfAmCfUmUfGmUdT*dT; siRNA) [compound 2336],0.783 ± 0.037,0.299 ± 0.034
2337 (sense fAmCfUmAfAmAfAmAfGmAfUmUfCmCfUmCfGmUfAdT; antisense dTfAmCfGmAfGmGfAmAfUmCfUmUfUmUfUmAfGmUdT*dT; siRNA) [compound 2337],0.334 ± 0.066,0.131 ± 0.033
2338 (sense fAmGfGmGfUmCfAmAfCmUfCmCfAmAfCmGfUmAfAdT; antisense dTfUmAfCmGfUmUfGmGfAmGfUmUfGmAfCmCfCmUdT*dT; siRNA) [compound 2338],0.743 ± 0.070,0.334 ± 0.091
2339 (sense fGmGfGmUfCmAfAmCfUmCfCmAfAmCfGmUfAmUfAdT; antisense dTfAmUfAmCfGmUfUmGfGmAfGmUfUmGfAmCfCmCdT*dT; siRNA) [compound 2339],0.523 ± 0.134,0.189 ± 0.028
2340 (sense fGmUfCmAfAmCfUmCfCmAfAmCfGmUfAmUfGmUfAdT; antisense dTfAmCfAmUfAmCfGmUfUmGfGmAfGmUfUmGfAmCdT*dT; siRNA) [compound 2340],0.920 ± 0.114,0.444 ± 0.039
2341 (sense fUmCfAmAfCmUfCmCfAmAfCmGfUmAfUmGfUmGfAdT; antisense dTfCmAfCmAfUmAfCmGfUmUfGmGfAmGfUmUfGmAdT*dT; siRNA) [compound 2341],0.378 ± 0.116,0.202 ± 0.018
